According to paper PMC10882157 (Diabetes, 2023):
pEC50: −log10 of the molar value. Values joined by “and” are separate entries in the source; they are usually repeats but may differ in a detail not shown here. Equal entries are not always repeated.

How the values were obtained:
L6 myoblasts = assay: Whole-cell current clamp recording of plasma membrane potential; type: cell-based, rat; conditions: n = 8
rat L6 myoblasts = assay: Cellular oxygen consumption rate; type: cell-based
C57BL/6J mice fed the WD = assay: Western diet-induced adiposity reversal study; type: in vivo
mice [1] = assay: Whole-body OCR by indirect calorimetry; type: in vivo, mouse; conditions: 40 mg/kg oral gavage
mice [2] = assay: Dose escalation tolerability study by oral gavage; type: in vivo, mouse
[3] = tested on: ACC, pSer79-ACC, FAS, AMPK (pThr172); type: in vivo, mouse; conditions: mice fed SHD865 in the WD
[4] = tested on: β-hydroxy-acyl-CoA dehydrogenase (HAD); assay: Enzyme activity of HAD in WD-fed mice; type: in vivo, mouse; conditions: mice fed SHD865 in the WD
[5] = Tissue concentrations at study termination; type: in vivo, C57BL/6J mice; conditions: for concentration at 6 weeks: C57BL/6J, mouse, oral, 38 mg/kg per day (0.04% w/w in diet)
[6] = tested on: medium-chain acyl-CoA dehydrogenase (MCAD); assay: Enzyme activity of MCAD in WD-fed mice; type: in vivo, mouse; conditions: mice fed SHD865 in the WD
L6 cells = assay: Mitochondrial stress test; conditions: drug 50 μmol/L, oligomycin 1 μmol/L
C57BL/6J mouse tissue = assay: High-resolution respirometry; type: in vivo, C57BL/6J mice; conditions: 2 h after oral gavage of 30 mg/kg
[7] = Intrinsic clearance in human liver microsomes; type: in vitro ADME
[8] = Mouse pharmacokinetics and oral bioavailability; type: in vivo, C57BL/6J mice; conditions: C57BL/6J, plasma, 10 mg/kg
[9] = Rat pharmacokinetics and oral bioavailability; type: in vivo, Sprague-Dawley rats; conditions: Sprague-Dawley, serum
[10] = second cohort, versus WD-fed controls, 4–5 h fasting

N#CC(C#N)=NNc1ccc(OC(F)(F)F)cc1 [FCCP, carbonylcyanide p-(trifluoromethoxy)phenylhydrazone, reference compound]
plasma membrane depolarization (L6 myoblasts; 10 μmol/L): 4.9 ± 1.0 mV
pEC50 (rat L6 myoblasts; read-out: EC50 (OCR), average values, dose response 0.4 to 50 μmol/L): 5.92

COc1nc2nc(C(F)(F)F)[nH]c2nc1Nc1ccc(OC(F)(F)F)cc1F [SHD865, N-[2-fluoro-4-[trifluoromethoxy]phenyl]-5-methoxy-2-[trifluoromethyl]-1H-imidazo[4,5-b]pyrazine-6-amine]
fecal triglyceride levels compared with WD-fed mice (C57BL/6J mice fed the WD; 0.04% w/w in WD): did not alter fecal triglyceride levels
postprandial plasma cholesterol compared with pretreatment (C57BL/6J mice fed the WD; 0.04% w/w in WD): significantly lowered
postprandial plasma triglyceride compared with pretreatment (C57BL/6J mice fed the WD; 0.04% w/w in WD): significantly lowered
random-fed blood glucose compared with WD-fed controls (C57BL/6J mice fed the WD; 0.04% w/w in WD): decrease
random-fed insulin levels compared with WD-fed controls (C57BL/6J mice fed the WD; 0.04% w/w in WD): decrease
skeletal muscle triglyceride content (C57BL/6J mice fed the WD; 0.04% w/w in WD): completely normalized
body weight and body fat mass composition (C57BL/6J mice fed the WD; 0.04% w/w in WD (∼38 mg/kg per day), first 2 weeks of treatment): recovered normal body weight and body fat mass composition similar to the lean chow-fed control mice
WD-induced fat gain (EchoMRI and terminal gonadal fat pad mass) (C57BL/6J mice fed the WD; 0.04% w/w in WD, 6 weeks): completely reversed the WD-induced fat gain
food intake (C57BL/6J mice fed the WD; 0.04% w/w in WD, 6 weeks): without a decrease in food intake
lipid droplet accumulation in liver tissue (hematoxylin and eosin staining) (C57BL/6J mice fed the WD; 0.04% w/w in WD, 6 weeks): decreased lipid droplet accumulation
liver cholesterol concentrations (C57BL/6J mice fed the WD; 0.04% w/w in WD, 6 weeks): lower than WD-fed control mice and similar to chow-fed mice
liver triglyceride levels (C57BL/6J mice fed the WD; 0.04% w/w in WD, 6 weeks): between those of chow-fed and WD-fed mice without being statistically different from either group
blood ALT levels (C57BL/6J mice fed the WD; 0.04% w/w in WD, 6 weeks, both cohorts): did not raise ALT levels
glucose tolerance (GTT at week 9) (C57BL/6J mice fed the WD; 0.04% w/w in WD, after 5 weeks of treatment): completely reversed glucose intolerance
insulin levels during GTT, lower than WD-fed controls (C57BL/6J mice fed the WD; second cohort of mice): 20–30%
hepatic triglyceride production using poloxamer 407 (C57BL/6J mice fed the WD; [10]): neither experiment showed a phenotype
triglyceride clearance by oral triglyceride tolerance test (OTTT) (C57BL/6J mice fed the WD; [10]): neither experiment showed a phenotype
time for respiration to return to normal (mice [1]): 4 h
increase in whole-body OCR compared with vehicle (mice [1]; first hour after treatment): up to 26%
adverse effects after acute oral bolus (mice [2]; C57BL/6J mice, 1,000 mg/kg oral): no adverse effects
behavioral signs of distress or ill thrift (mice [2]; mice, oral gavage 300 and 1,000 mg/kg, 24-h observation): no behavioral signs of distress or ill thrift were observed
effect on body (rectal) temperature (mice [2]; mice, oral gavage 300 and 1,000 mg/kg, 24 h): no effect on body temperature was detected
efficacious dose relative to dose level with no observed adverse effect (mice [2]; ∼38 mg/kg per day in diet versus 1,000 mg/kg acute oral): 27 fold
plasma membrane depolarization (L6 myoblasts; 25 μmol/L): 1.4 ± 0.4 mV
ACC expression versus WD-fed control mice [3]: lower
FAS expression versus WD-fed control mice [3]: lower
Ser79 phosphorylation of ACC [3]: trend for increased Ser79 phosphorylation of ACC
phosphorylation of AMPK-Thr172 [3]: increased phosphorylation of AMPK-Thr172
decrease of HAD activity versus WD-fed control [4]: 12%
concentration at 6 weeks ([5]; brown fat): 18000 ng/g
concentration at 6 weeks ([5]; gonadal fat): 27000 ng/g
concentration at 6 weeks ([5]; liver): 14500 ng/g and ~34 µM
steady-state tissue distribution ([5]; study termination, 0.04% w/w in WD): primarily localized to adipose and liver tissue depots, with lesser exposure in quadriceps muscle, heart, and brain
MCAD activity [6]: no treatment had any effect
mitochondrial respiration in the presence of oligomycin (L6 cells): increase mitochondrial respiration in the presence of the ATP synthase inhibitor oligomycin
spare respiratory capacity, % of BAM15-treated cells (L6 cells): ~90%
mitochondrial activity in liver, muscle, heart, white and brown fat (C57BL/6J mouse tissue): only the liver had significantly increased mitochondrial activity
microsomal CLint [7]: < 116 µL/min/mg
Cmax [8]: 9.1 µM
half-life [8]: 102 min
half-life [9]: 102 min
uncoupled respiration across concentration range (rat L6 myoblasts): maintained uncoupled respiration at a stable rate across a large concentration range
bioactive concentration range in vitro (rat L6 myoblasts; Fig. 1B): > 10 µmol/L
increase of cellular OCR, as % of the maximal OCR induced by BAM15 and FCCP (rat L6 myoblasts; dose response 0.4 to 50 μmol/L): ~90%
